Results as given in US8293464B2, “Methods for reducing the internalization of viruses and identification of compounds effective thereof” (Universiteit Gent, priority 2008, dated 2012).
Read-outs that look alike come from different tables or passages of the source. Residues, ends and D or L forms follow the SMILES beside them.

Assays:
feline monocytes = experiment: Internalization assay of control ligands (beads, transferrin or albumin) in monocytes; type: cell-based; details: for internalization of a control ligand: control ligand not named
Protocol: To test the effectiveness of all reagents, a suitable control was used in each experiment. Monocytes seeded on glass coverslips were pre-incubated for 30 minutes at 37° C. with 5% CO2 in the presence of one of the inhibitors. After treatment, the cells were incubated with biotinylated transferrin (Sigma-Aldrich GmbH) or fluorescent 1 μm polystyrene microspheres, FluoSpheres (Molecular Probes-Invitrogen), in presence of the inhibitor. Then, cells were fixed with 1% formaldehyde and permeabilized with 0.1% Triton X-100. The biotinylated transferrin was visualized by incubating the cells with streptavidin-FITC for 1 hour at 37° C. and cells incubated with fluorescent beads were incubated with phalloidin-Texas Red (Molecular Probes-Invitrogen) for 1 hour at 37° C. to visualize the lamellipodia. The glass coverslips were mounted on microscope slides using glycerin-DABCO and analyzed by confocal microscopy. […] Fluorescent beads were considered internalized when they were found inside the cortical actin labeling.

[1] = test system: surface expressed viral antigens in FIPV infected monocytes; experiment: Internalization inhibition assay of surface expressed viral antigens (antigen-antibody complexes); type: cell-based, feline; details: each inhibitor at its working concentration; for internalization of viral antigens: 30 min pre-incubation, 30 min with antibodies
HIV-1 NL4.3-eGFP = type: cell-based, Human Immunodeficiency Virus 1
Protocol: In this experiment the Human Immunodeficiency Virus 1 (HIV-1) strain HIV-1 NL4.3-eGFP which is a lab strain with an eGFP reporter, was used to infect the human T-cell lymphoblatic lymphoma cell line SupT1. The percentage of eGFP positive cells measured at different time point was used as endpoint read out SupT1. ML-7 inhibitor was used at three different concentration: 0 (DMSO), 2,5 and 25 μM.
SupT1 cells were at a concentration of 20000 cell/well in 200 μl of iMDM medium supplemented with 10% FCS, 1% penicillin/streptomycin and 1% L-glutamine, and were centrifuged at 300 g for 5 min at 4° C. Supernatant was removed and the cells were treated for 30 min with 100 μl of 0 (DMSO at 1/200 dilution in culture medium), 5 and 50 μM ML-7 inhibitor prepared in culture medium at 1/2000 and 1/200 dilution respectively. Meanwhile, HIV-1 NL4.3-eGFP virus was diluted in 10 fold dilution series in a separate plate (starting from 1/5 of stock, put on first well). 100 μl of each virus at every dilution was transferred to the corresponding well of the culture plate treated with the inhibitor. Four hours later approximately 100 μl was transferred to an
Cells were centrifuged at 300 g for 5 min at 4° C. and approximately 100 μl was collected then stored at −80° C. for p24 measurement. Then 100 μl of cells infected with HIV1-NL4.3-eGFP virus was collected for the determination of the percentage of eGFP positive cells by FACS. Cells were resuspended in 200 μl of medium containing the adequate ML-7 inhibitor concentration. • 3. Day 7
Cells were treated in the same way as in day 3
During the course of the experiment cells were monitored carefully by microscopy to check for signs of infection such as: • eGFP expression • Syncytia formation • Cell death Results

EHV (EEL cells) = experiment: Plaque reduction assay, entry of equine herpesvirus in EEL cells; type: cell-based
FIPV 1146 (CrFK cells) = experiment: Plaque reduction assay, entry of FIPV 1146 in CrFK cells; type: cell-based, feline infectious peritonitis virus
[2] = test system: swine influenzavirus in MDCK cells; type: cell-based
[3] = test system: Porcine respiratory coronavirus (PRCV) in ST cells; experiment: Plaque reduction assay, entry of porcine respiratory coronavirus in ST cells; type: cell-based
protein kinase C = details: 50 and 100 μM; cited from earlier work
FECV 1863 (CrFK cells) = experiment: Plaque reduction assay, entry of FECV 1863 in CrFK cells; type: cell-based, feline enteric coronavirus
[4] = test system: PRRSV in alveolar macrophage; type: cell-based, Porcine reproductive and respiratory syndrome virus
FIPV Black (fcwf cells) = experiment: Plaque reduction assay, entry of FIPV Black in fcwf cells; type: cell-based, feline infectious peritonitis virus; details: FIPV strain Black
[5] = test system: PrV infected porcine monocytes; experiment: Antibody-induced internalization of PrV viral proteins in porcine monocytes; type: cell-based; details: 10 μM
HSV1 (VERO cells) = experiment: Plaque reduction assay, entry of HSV1 in VERO cells; type: cell-based, human herpes simplex virus 1
hepatitis C virus (HCV) = experiment: Single infected cell reduction assay, entry of HCV in Huh7.5 hepatoma cells; type: cell-based, human hepatitis C virus; details: 25 μM; Huh7.5 cells
Protocol: The single infected cell reduction assay was used to determine the antiviral potency of to ML-7 on the entry of hepatitis C virus (HCV). • 1. Day 1
Huh7.5 hepatoma cells were seeded in a 96-well plate at 10000 cells/well in 100 μl medium containing 0, 2.5 or 25 μM of ML-7. • 2. Day 2
Virus was diluted in medium containing the different concentrations of the inhibitor to reach an end concentration of 2,22.10^6 IU/ml. 100 μl of this mixture was added to the wells and the plate was further incubated at 37° C. • 3. Day 6
The cells were fixed and stained for NS5A (a HCV protein). Then the amount of HCV-positive clusters per well was counted. A cluster is defined as a group of positive cells that is separated from another cluster by at least 1 non-infected cell.

PRRSV in MARC cells = experiment: Plaque reduction assay, entry of PRRSV in MARC cells; type: cell-based, Porcine reproductive and respiratory syndrome virus
FeHV (CrFK cells) = experiment: Plaque reduction assay, entry of feline herpesvirus in CrFK cells; type: cell-based
protein kinase A = details: 50 and 100 μM; cited from earlier work
[6] = inhibitor at working concentration
[7] = Day 3, 2.5 μM, virus dilution 10X
[8] = Day 3, 2.5 μM, virus dilution 100X
[9] = Day 3, 2.5 μM, virus dilution 1000X
[10] = Day 3, 25 μM, virus dilution 10X
[11] = Day 3, 25 μM, virus dilution 100X
[12] = Day 3, 25 μM, virus dilution 1000X
[13] = Day 7, 2.5 μM, virus dilution 10X
[14] = Day 7, 2.5 μM, virus dilution 100X
[15] = Day 7, 2.5 μM, virus dilution 1000X, at or below detection limit
[16] = Day 7, 25 μM, virus dilution 10X
[17] = Day 7, 25 μM, virus dilution 100X
[18] = Day 7, 25 μM, virus dilution 1000X, at or below detection limit
[19] = feline coronaviruses, FIG. 4, 50 and 100 μM
[20] = feline coronaviruses, FIG. 4, higher concentrations

CC(NC(=O)C(CCCN=C(N)N)NC(=O)C(CCCCN)NC(=O)C(N)CCCN=C(N)N)C(=O)NC(CCCN=C(N)N)C(=O)NC(CCCCN)C(=O)NC(CCC(=O)O)C(=O)O (stereo not drawn) [PKG-inhibitor] (H-RKRARKE-OH; configuration not given here)
internalization of a control ligand (feline monocytes; [6]): 14±7%
internalization of viral antigens (in words) [1]: unaffected

CN[C@@H]1C[C@H]2O[C@@](C)([C@@H]1OC)n1c3ccccc3c3c4c(c5c6ccccc6n2c5c31)C(=O)NC4 [staurosporine]
internalization of the control ligand beads (feline monocytes; [6]): 23±4 % of untreated control
internalization of viral antigens [1]: 21±2 % of untreated control

[F-].[Na+] [sodium fluoride]
internalization of the control ligand transferrin (feline monocytes; [6]): 46±6 % of the untreated control
internalization of viral antigens (in words) [1]: no reduction

CN(C)CCCn1cc(C2=C(c3c[nH]c4ccccc34)C(=O)NC2=O)c2ccccc21 [bisindolylmaleimide I]
internalization of a control ligand (feline monocytes; [6]): 25±13%
internalization of viral antigens (in words) [1]: unaffected

O=S(=O)(NCCNC/C=C/c1ccc(Br)cc1)c1cccc2cnccc12 [H-89]
internalization of a control ligand (feline monocytes; [6]): 33±29%
internalization of viral antigens (in words) [1]: unaffected

COC(=O)[C@@]1(O)C[C@H]2O[C@]1(C)n1c3ccccc3c3c4c(c5c6ccccc6n2c5c31)C(=O)NC4 [K252a, K-252a]
internalization of the control ligand (beads), in words (feline monocytes; 150 nM K-252a): inhibited
internalization of viral antigens (in words) [1]: inhibited

O=S(=O)(c1cccc2c(I)cccc12)N1CCCNCC1 [ML-7]
internalization of the control ligand beads (feline monocytes; [6]): 11±5 % of untreated control
protection from virus mediated cell death (HIV-1 NL4.3-eGFP; 25 μM): protected
Percentage of eGFP cells (HIV-1 NL4.3-eGFP; [7]): 2.98%
eGFP cells relative to 0 μM ML-7 (100%) (HIV-1 NL4.3-eGFP; [7]): (80%)
Percentage of eGFP cells (HIV-1 NL4.3-eGFP; [8]): 0.18%
eGFP cells relative to 0 μM ML-7 (100%) (HIV-1 NL4.3-eGFP; [8]): (46%)
Percentage of eGFP cells (HIV-1 NL4.3-eGFP; [9]): 0.04%
eGFP cells relative to 0 μM ML-7 (100%) (HIV-1 NL4.3-eGFP; [9]): (36%)
Percentage of eGFP cells (HIV-1 NL4.3-eGFP; [10]): 1.52%
eGFP cells relative to 0 μM ML-7 (100%) (HIV-1 NL4.3-eGFP; [10]): (41%)
Percentage of eGFP cells (HIV-1 NL4.3-eGFP; [11]): 0.19%
eGFP cells relative to 0 μM ML-7 (100%) (HIV-1 NL4.3-eGFP; [11]): (49%)
Percentage of eGFP cells (HIV-1 NL4.3-eGFP; [12]): 0.06%
eGFP cells relative to 0 μM ML-7 (100%) (HIV-1 NL4.3-eGFP; [12]): (54%)
Percentage of eGFP cells (HIV-1 NL4.3-eGFP; [13]): 35.8%
eGFP cells relative to 0 μM ML-7 (100%) (HIV-1 NL4.3-eGFP; [13]): (92%)
Percentage of eGFP cells (HIV-1 NL4.3-eGFP; [14]): 18.64%
eGFP cells relative to 0 μM ML-7 (100%) (HIV-1 NL4.3-eGFP; [14]): (44%)
Percentage of eGFP cells (HIV-1 NL4.3-eGFP; [15]): 0.95%
eGFP cells relative to 0 μM ML-7 (100%) (HIV-1 NL4.3-eGFP; [15]): (3160%)°
Percentage of eGFP cells (HIV-1 NL4.3-eGFP; [16]): 1.13%
eGFP cells relative to 0 μM ML-7 (100%) (HIV-1 NL4.3-eGFP; [16]): (3%)
Percentage of eGFP cells (HIV-1 NL4.3-eGFP; [17]): 0.14%
eGFP cells relative to 0 μM ML-7 (100%) (HIV-1 NL4.3-eGFP; [17]): (0.3%)
Percentage of eGFP cells (HIV-1 NL4.3-eGFP; [18]): 0.06%
eGFP cells relative to 0 μM ML-7 (100%) (HIV-1 NL4.3-eGFP; [18]): (200%)
inhibition of HIV-1 NL4.3-eGFP infection (HIV-1 NL4.3-eGFP; SupT1 cells): strong inhibition
toxic effect on cells (HIV-1 NL4.3-eGFP; SupT1 cells): No toxic effect
virus induced syncytia (HIV-1 NL4.3-eGFP; high concentration, data not shown): inhibited completely
protection from virus mediated cell death (HIV-1 NL4.3-eGFP; intermediate inhibitor concentration): mild
additional effect at high concentration (EHV (EEL cells); 100 μM): additional inhibitory effect
plaques, % of the untreated control (EHV (EEL cells); 1,56 μM): 86 % of the untreated control
reduction of entry, % of the control (FIPV 1146 (CrFK cells); FIPV on CrFK cells, 3,13 μM): 88 % of the control
inhibitory effect on entry at the highest concentrations (FIPV 1146 (CrFK cells); [19]): inhibitory effect increased rapidly
inhibitory effect on entry at higher concentrations (FIPV 1146 (CrFK cells); [20]): inhibitory effect seemed to be lost again
internalization of viral antigens [1]: 12±21 % of untreated control
number of plaques, % of the control ([2]; 3,13 μM): 76 % of the control
further reduction at the higher concentrations ([2]; higher concentrations): no further reduction
number of plaques, % of the untreated control ([3]; 50 μM): about 40 % of the untreated control
entry (plaque formation), % of the untreated control ([3]; 1,56 μM): 68 % of the untreated control
inhibitory effect at higher concentrations ([3]; higher concentrations (up to 6 μM)): inhibitory effect is lost again
block of protein kinase C (protein kinase C): can also block
reduction of entry, % of the control (FECV 1863 (CrFK cells); FECV on CrFK cells, 1,56 μM): 73%
inhibitory effect on entry at the highest concentrations (FECV 1863 (CrFK cells); [19]): inhibitory effect increased rapidly
inhibitory effect on entry at higher concentrations (FECV 1863 (CrFK cells); [20]): inhibitory effect seemed to be lost again
number of plaques, % of the control ([4]; 0,78 μM): 68 % of the control
further reduction at the higher concentrations ([4]; higher concentrations): no further reduction
effect on the entry process (FIPV Black (fcwf cells)): little effect
antibody-induced internalization of PrV viral proteins [5]: can be inhibited
plaques, % of the untreated control (HSV1 (VERO cells); 1,56 μM): 81 % of the untreated control
additional effect at high concentration (HSV1 (VERO cells); 25 and 100 μM): additional effect
amount of infected clusters, % of the untreated control (hepatitis C virus (HCV)): 31 % of the untreated control
effect on entry (PRRSV in MARC cells): activating effect instead of an inhibiting effect
additional effect at high concentration (FeHV (CrFK cells); 100 μM): additional inhibitory effect
plaques, % of the untreated control (FeHV (CrFK cells); 1,56 μM): 79 % of the untreated control
block of protein kinase A (protein kinase A): can also block

CN(N=O)c1cc(O)ccc1O [dephostatin]
internalization of the control ligand beads (feline monocytes; [6]): 2±3 % of untreated control
internalization of viral antigens [1]: 96±23 % of untreated control

COc1ccc(S(=O)(=O)N(CCO)c2ccccc2CN(C)C/C=C/c2ccc(Cl)cc2)cc1 [KN-93]
internalization of a control ligand (feline monocytes; [6]): 23±16%
internalization of viral antigens (in words) [1]: unaffected
